Results on 10 molecules are retold here after patent US9527828B2, “Method for expanding hematopoietic stem cells using heterocyclic compound” (Nissan Chemical Industries, Ltd., priority 2007, dated 2016).

Experiment [1] concerns HPP-CFU colony forming cells. Description: Blood cell colony forming assay, HPP-CFC colonies (Example 5). The format is cell-based, human. Conditions: liquid cultures of Example 2 (1 μg/mL compound), 500 cells/dish, MethoCult GF H4435, 12 days, averaged. Here is the method:
The effects of Compounds No. 1, No. 2, and No. 4 of the present invention on hematopoietic progenitor cells were measured by blood cell colony forming assay. The liquid cell cultures obtained in Example 2 were poured into 3.5-cm Petri dishes with MethoCult GF H4435 culture medium (Stemcell Technologies) at 500 cells/dish and incubated in a CO2 incubator (5% CO2, 37° C.) for 12 days. The number of HPP-CFC colonies in each plate was counted under a microscope routinely. The assay was carried out at least in duplicate, and the numbers of HPP-CFC colonies were averaged.

Another experiment has as its system SRC. Kind of experiment: Transplantation of cell culture into NOD/SCID mice, human CD45+ cells in bone marrow (Example 7). The format is in vivo. The settings on record: cells cultured with 1 μg/mL compound vs 10 ng/mL TPO; three weeks after transplantation (FIG. 3). The procedure:
Cultured cells obtained in the same manner as in Example 2 in the presence of TPO (Peprotech) at a final concentration of 10 ng/mL or in the presence of Compound No. 1 or No. 4 at a final concentration of 1 μg/mL was transplanted into at least three 7- to 8-week-old NOD/SCID mice by tail vein injection at 4 to 5×10^4 cells/mouse in terms of the initial number of CD34^+ cells after a sublethal dose of irradiation (2.75 to 3 Gy). Three weeks after the transplantation, the mice were killed, and the bone marrow cells were collected from both thighbones. Subsequently, the bone marrow cells were stained with a human CD45 antibody (APC, Becton, Dickinson and Company), then washed with PBS(−) containing 2% (v/v) FBS and stained with propidium iodide (Sigma-Aldrich Japan) added to a final concentration of 5 μg/mL. The stained cells were analyzed with a flow cytometer JSAN (Bay Bioscience) to determined the proportion of human CD45^+ cells in the bone marrow cells.
The proportions of human CD45^+ cells from the cell cultures incubated in the presence of 1 μg/mL of Compound No. 1 or No. 4 based on the proportion of human CD45^+ cells from the cell culture incubated in the presence of 10 ng/mL TPO are shown in FIG. 3.

Experiment [2] deals with CD34^+CD38^− cells. Kind of experiment: Expansion of CD34+CD38− cells from human cord blood-derived CD34+ cells (Example 2). The format is cell-based. Conditions: Homo sapiens, 168 h, 1 μg/mL compound, 50 ng/mL SCF, StemSpan SFEM, 7 days; based on number of CD34+CD38− cells in the absence of compound; read-out: Expansion efficiency. Put shortly: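 Human cord blood CD34+ cells (10000 cells/mL) were cultured 7 days at 37 °C, 5% CO2 in StemSpan SFEM with 50 ng/mL SCF and compound at 1 μg/mL final (0.1% DMSO). Viable cells were counted by trypan blue and the CD34+CD38− fraction by flow cytometry with PI exclusion; expansion is relative to no-compound culture, graded A (≥10), B (5–<10), C (3–<5).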

The subject of a further experiment is CD34^+NGFR^+ cells. Description: Transfection of cord blood CD34+ cells with NGFR gene, CD34+NGFR+ cell expansion (Example 10). Details: species or system human. The settings on record: TPO 20 ng/mL or compound 0.3 μg/mL, 20 ng/mL SCF and Flt-3; based on number of CD34+NGFR+ cells in the absence of them. Here is the method: The human cord blood-derived CD34^+ cells collected or purchased in Example 1 were plated on 3 cm-Petri dishes (TPP) (100000 cells/3 ml/dish). As the culture medium, StemSpan SFEM (Stemcell Technologies) containing 20 ng/ml SCF (Peprotech) and 20 ng/mL Flt-3 (Wako Pure Chemical Industries) was used, and TPO (Peprotech) or Compound No. 1 or No. 4 in dimethyl sulfoxide in an amount of 0.1% (v/v) was added to a final concentration of 20 ng/mL or 0.3 μg/mL, respectively. A negative control culture was incubated in the absence of TPO and the compounds.
After the cells were incubated in liquid culture at 37° C. for 24 hours in a CO2 incubator (5% CO2), 2 ml of the culture medium was sucked out, and 2 ml of the solution of the retrovirus for expression of NGFR prepared in Example 7 (containing 5 μg/mL protamine sulfate (Sigma-Aldrich Japan), 20 ng/ml SCF (Peprotech) and 20 ng/mL Flt-3 (Wako Pure Chemical Industries)) was added. TPO (Peprotech) or Compound No. 1 or No. 4 in dimethyl sulfoxide in an amount of 0.1% (v/v) was further added to a final concentration of […] or 0.3 μg/mL, respectively, and centrifugation at 2000 g was carried out at 32° C. for 30 minutes. Then, the cells were incubated in liquid culture under the same conditions as mentioned above for 24 hours, 2 ml of the culture medium was sucked out, 2 ml of the same solution of the retrovirus for expression of NGFR was added together with TPO or either compound, and centrifugation at 2000 g was carried out at 32° C. for 30 minutes. […] The cells were incubated in liquid culture under the same conditions as mentioned above for 24 hours, and the number of viable cells was counted by trypan blue assay (GIBCO).
The number of CD34^+ cells carrying NGFR introduced via the retrovirus vector (the number of CD34^+NGFR^+ cells) was calculated as follows. […] The stained cells were analyzed with JSAN (Bay Bioscience) to determined the proportion of CD34^+NGFR^+ cells, which was multiplied by the number of viable cells to calculate the number of CD34^+NGFR^+ cells. […]

In experiment [3] the test system is CD34^+CD38^− cells. Kind of experiment: Expansion of CD34+CD38− cells using cord blood-derived CD34+CD38− cells (Example 6). The format is cell-based, human. Conditions: 1 μg/mL compound, CD34+CD38− starting cells, 50 ng/mL SCF, 7 days; based on number of CD34+CD38− cells in the presence of 10 ng/mL TPO. The procedure:
The human cord blood-derived CD34^+CD38^− cells collected in Example 1 were plated on a 24-well plate (TPP) (from 3000 to 10000 cells/1 mL/well). As the culture medium, StemSpan SFEM (Stemcell Technologies) containing 50 ng/mL SCF (Peprotech) was used, and TPO (Peprotech) or Compound No. 1, No. 2, No. 4 or No. 6 in dimethyl sulfoxide in an amount of 0.1% (v/v) was added to a final concentration of […] or 1 μg/mL, respectively. After the cells were incubated in liquid culture at 37° C. for 7 days in a CO2 incubator (5% CO2), the number of CD34^+CD38^− cells was calculated in the same manner as in Example 2.
The expansion efficiencies in the presence of 1 μg/mL of the compounds based on the number of CD34^+CD38^− cells in the presence of 10 ng/mL TPO are shown in Table 5.

Consider `C/C(=N\NC(=O)c1ccc(C(=O)NCc2ccc(C(N)=O)cc2)s1)c1csc(-c2ccc(Cl)c(Cl)c2)c1O` [Compound No. 4], for which the “Number of HPP-CFC colonies” value in experiment [1] was determined as 45. For the same molecule, the “SRC expanding effect (proportion of human CD45+ cells in bone marrow)” value in the experiment on SRC is on record as “excellent SRC expanding effect”. In addition, in the experiment with CD34^+CD38^− cells [2], the fold induction at 1 µg/mL is ≥ 10. In addition, the Expansion efficiency in the experiment with CD34^+NGFR^+ cells came to 12.5; in the experiment on CD34^+CD38^− cells [3], 1.9.

On to `C/C(=N\NC(=O)c1ccc(C(=O)NCc2cn(C)cn2)s1)c1csc(-c2ccc(Cl)c(Cl)c2)c1O` [Compound No. 1], for which, in experiment [1], the “Number of HPP-CFC colonies” value was determined as 41. The “SRC expanding effect (proportion of human CD45+ cells in bone marrow)” value in the experiment on SRC is reported as “excellent SRC expanding effect”. Moreover, the fold induction at 1 µg/mL in the experiment on CD34^+CD38^− cells [2] was ≥ 10. Besides, the Expansion efficiency in the experiment on CD34^+NGFR^+ cells was 9.8; in the experiment with CD34^+CD38^− cells [3], 1.9.

As to `C/C(=N\NC(=O)c1ccc(C(=O)NCc2cc(C)n(C)n2)s1)c1csc(-c2ccc(Cl)c(Cl)c2)c1O` [compound 2], in experiment [1], the “Number of HPP-CFC colonies” value amounted to 35. Further, the fold induction at 1 µg/mL with CD34^+CD38^− cells [2] is ≥ 10. Further, the Expansion efficiency in the experiment with CD34^+CD38^− cells [3] is reported as 2.7.

For the molecule thrombopoietin [TPO], the Expansion efficiency in the experiment on CD34^+NGFR^+ cells is on record as 7.7.

For the molecule `C/C(=N\NC(=O)c1ccc(C(=O)Nc2cscn2)s1)c1csc(-c2ccc(Br)cc2)c1O` [compound 6], the fold induction at 1 µg/mL with CD34^+CD38^− cells [2] was ≥ 10. The Expansion efficiency in the experiment with CD34^+CD38^− cells [3] is 1.4.

As to `CC(=O)Nc1ccc(C(C)NC(=O)c2ccc(C(=O)N/N=C(\C)c3csc(-c4ccc(Cl)cc4)c3O)s2)cc1` (stereo not drawn) [compound 124], the fold induction at 1 µg/mL in the experiment on CD34^+CD38^− cells [2] is ≥ 10.

As for `C/C(=N\NC(=O)c1ccc(C(=O)NCc2ccc(C(=O)O)cc2)s1)c1csc(-c2ccc(Cl)c(Cl)c2)c1O` [compound 83], the fold induction at 1 µg/mL with CD34^+CD38^− cells [2] lay within 3 to 5.

As to `COc1cc(CNC(=O)c2ccc(C(=O)N/N=C(\C)c3csc(-c4ccc(OC(F)(F)F)cc4)c3O)s2)on1` [compound 15], the fold induction at 1 µg/mL in the experiment with CD34^+CD38^− cells [2] is ≥ 10.

With `C/C(=N\NC(=O)c1ccc(C(=O)NCc2cccs2)s1)c1csc(-c2cccc(Cl)c2)c1O` [compound 30], in the experiment with CD34^+CD38^− cells [2], the fold induction at 1 µg/mL was 5 to 10.

In the case of `CNC(=O)c1ccc(CNC(=O)c2ccc(C(=O)N/N=C(\C)c3csc(-c4ccc(C(F)(F)F)cc4)c3O)s2)cc1` [compound 109], the fold induction at 1 µg/mL in the experiment on CD34^+CD38^− cells [2] is ≥ 10.
